US8518997B2, “4-(phenoxyalkyl)thio)-phenoxyacetic acids and analogs” (Janssen Pharmaceutica N.V., priority 2003, dated 2013)
Values belong to the compound of their own block, whether it stands above or below them.

Columns and labels:
PPAR delta = molecular target: T1, PPAR delta (Homo sapiens, UniProt Q03181); test: Transfection assay for PPAR receptors (PPAR-Gal4 / Gal4-Luciferase reporter in HEK293 cells); format: cell-based
T1 sequence (Q03181 171-441 limits assumed): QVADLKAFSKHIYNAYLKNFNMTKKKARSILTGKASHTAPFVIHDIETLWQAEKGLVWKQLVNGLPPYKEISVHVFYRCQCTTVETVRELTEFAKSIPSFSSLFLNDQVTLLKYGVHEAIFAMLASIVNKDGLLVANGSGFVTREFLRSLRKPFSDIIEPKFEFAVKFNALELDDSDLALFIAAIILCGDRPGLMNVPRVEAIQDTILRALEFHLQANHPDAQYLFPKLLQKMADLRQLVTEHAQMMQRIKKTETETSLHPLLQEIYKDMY
Method: Transfection Assay Method for PPAR Receptors
HEK293 cells were grown in DMEM/F-12 Media supplemented with 10% FBS and glutamine (GIBCOBRL). The cells were co-transfected with DNA for PPAR-Gal4 (PPARα, γ or δ) receptor and Gal4-Luciferase Reporter using the DMRIE-C Reagent. On the following day, the medium was replaced with 5% Charcoal treated FBS growth medium. After six hours, cells were trypsinized and seeded at a density of 50,000 cell/well into 96 well plates and incubated overnight at 37° C. in a 5% CO2 incubator. Cells were then treated with test compounds or vehicle and incubated for 24 hours at 37° C. in a 5% CO2 incubator. Luciferase activity was assayed using the Steady-Glo Luciferase Assay Kit from Promega. […] Steady-Glo Luciferase Assay Kit was purchased from Promega Part# E254B.

[1] = test system: differentiated THP-1 monocytes; conditions: cited from earlier work

EC50 (PPAR delta; HEK293 cells co-transfected with PPAR-Gal4 (δ) receptor and Gal4-Luciferase reporter, 24 hours, multiple EC50's = multiple measurements, Table 2): 0.618 µM
Compound: Cc1cc(OCC(O)COc2ccc(C(F)(F)F)cc2)ccc1OCC(=O)O (stereo not shown) [Compound 45]

Compound: Cc1cc(SCc2sc(-c3ccc(C(F)(F)F)cc3)nc2C)ccc1OCC(=O)O [GW501516]
ABCA1 mRNA expression [1]: induced
cholesterol efflux [1]: enhanced

EC50 (PPAR delta; Table 3 compounds of interest, tested likewise): 0.0176 µM
Compound: Cc1cc(SCCCOc2ccc(C(F)(F)F)cc2)ccc1OCC(=O)O [{2-Methyl-4-[3-(4-trifluoromethyl-phenoxy)-propylsulfanyl]-phenoxy}-acetic acid]
